This assay deals with CEM cells HIV-1 protection, formazan growth assay. Nature of the assay: NCI AIDS Antiviral Assay. To be noted: for IC50: measured here: growth of uninfected CEM cells. The method, boiled down: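 CEM (human) cells, HIV-1 infected vs uninfected, 5-point dosing, formazan growth read-out. Retest threshold 50% protection.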

Activity calls are given as the source filed them.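 The calls were made as follows: active = compounds giving half or more protection of infected cells from virus-caused growth loss, again on retest; inactive = the rest.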 Where a SMILES comes first, the peptide text is derived from it. [ ]: non-standard residue; d: D form. The star is where a group is joined. ξ: configuration not given here. ξF = NC(Cc1ccccc1)C(=O)O; Cbz = O=C(OCc1ccccc1)*; Aib = CC(C)(N)C(=O)O

In the case of `CCCCCCSCC/C(C)=N\OC`, the EC50 is over 200 µM and the IC50 is over 200 µM.

In the case of `Fc1ccc(Nc2nc(Cl)c3[nH]cnc3n2)cc1Cl`, the EC50 was over 200 µM and the IC50 is over 200 µM.

Regarding `O=c1[nH]c(=O)n(COCCO)c2ccc(Br)cc12`, the EC50 was over 200 µM and the IC50 is over 200 µM.

For `CC(=O)OCc1cc(=O)n2c([nH]c3ccccc32)c1C#N`, the EC50 is over 20 µM and the half-maximal inhibitory concentration (IC50) was over 20 µM.

In the case of `O=C1CC(=O)N(CCc2ccccn2)C(=O)N1CCc1ccccn1`, the outcome was inactive.

Turning to `c1cnc2c(c1)n[n+]1[n-]c3ccccc3n21`, the EC50 is over 12.3 µM and the IC50 is over 12.3 µM.

Consider `N/N=C1\C(=O)N(Cc2ccccc2)C(=O)C1C(=O)NCc1ccccc1` (configuration not stated), for which the EC50 was over 7.76 µM and the IC50 was over 7.76 µM.

Consider `COC(=O)c1ccccc1/C=C1\Cc2c(C)cc(C)cc2C1=O`, for which the outcome was inactive.

Consider `COc1cc(N(CCC#N)CCC#N)ccc1/C(N=Nc1ccc(C(=O)O)cc1)=N/NC(=O)c1cc(Br)ccc1O`, for which the EC50 is over 200 µM and the IC50 came out at 26.3 µM.

Regarding `COc1cc(C(=O)Oc2ccc3c(c2)OCO3)cc(OC)c1OC`, the EC50 was over 200 µM and the IC50 was over 200 µM.

Consider `CCN(CC)C(=S)S[Se](SC(=S)N(CC)CC)(SC(=S)N(CC)CC)SC(=S)N(CC)CC`, for which the EC50 was over 200 µM and the IC50 came out at 0.794 µM.

Regarding `O=C(O)[C@H]1CCCN1C(=O)c1ccccc1SSc1ccccc1C(=O)N1CCC[C@H]1C(=O)O`, the EC50 was over 200 µM and the IC50 is over 200 µM.

With `O=C(NNC(=O)c1ccccc1O)c1ccc(O)cc1`, the EC50 was over 200 µM and the IC50 came out at 14.5 µM.

In the case of `Cc1cc(-c2ccccc2)nc(Nc2nc3ccccc3o2)n1`, the EC50 was over 61.7 µM and the IC50 is over 61.7 µM.

Regarding `Cc1cccc2c1[C@]13OC(C)[C@]4(C)CC5OC(=O)[C@@]1(C)[C@@H]5[C@]34C(=O)O2` (some centres not stated), the EC50 was over 200 µM and the IC50 is over 200 µM.

`CCN(CC)CCO/N=C1\CC[C@H]2[C@@H]3CCc4cc(OC)ccc4[C@H]3CC[C@]12C`: the EC50 is over 20 µM and the IC50 came to 2.69 µM.

Take `COC(=O)c1cc(/C=C/C(=O)Cc2ccccc2)cn1S(=O)(=O)c1ccccc1`: the EC50 is over 200 µM and the IC50 is over 200 µM.

In the case of `COc1ccc(/C=C2/C(=O)N=C(NC(C)=O)N2C)cc1OC`, the EC50 was over 200 µM and the IC50 was over 200 µM.

On to `C=CCNc1nc2c(s1)CCc1cc(OC)c(OC)cc1-2`, for which the EC50 is over 24 µM and the IC50 is over 24 µM.

Take `O=[N+]([O-])c1ccc2[nH]c(=S)n(/C=C(/c3ccc(Cl)cc3)S(=O)(=O)Cc3ccc(Cl)cc3)c2c1`: the EC50 is over 200 µM and the half-maximal inhibitory concentration (IC50) worked out at 102 µM.

For the compound `CN(/N=C\c1ccc2ccccc2c1)C1=NCCCCN1`, the EC50 was over 200 µM and the IC50 came out at 28.8 µM.

Take `O=C(O)c1ccc(N=Nc2ccc(CCc3ccc(N=Nc4ccc(C(=O)O)cc4O)cc3S(=O)(=O)O)c(S(=O)(=O)O)c2)c(O)c1`: the EC50 was 19.5 µM and the IC50 came to 234 µM.

On to `CC1=CC(=O)C2[C@@H](C1)C1(C)C(=O)C34OC(=O)C[C@@](C)([C@H]1C(=O)[C@@H]2C)[C@]3(C)CC[C@]12C[C@@H](C)C[C@H](CN41)O2` (some centres not stated), for which the outcome was inactive.

Turning to `CCN(CC)CCn1c(C)nc2c1C(=O)c1nc(C)n(CCN(CC)CC)c1C2=O`, the EC50 is over 200 µM and the IC50 came to 5.75 µM.

With `CC(=O)OC12c3ccccc3C1CCCC21OCCCO1` (configuration not stated), the EC50 was over 200 µM and the IC50 was over 200 µM.

Regarding `Cc1cc(=O)c2c(=O)oc3c4ccccc4ccc3c2o1`, the EC50 was over 200 µM and the IC50 turned out to be 105 µM.

Turning to `Cc1cc(=O)oc2c(O)c(O)ccc12`, the EC50 was over 263 µM and the IC50 is 141 µM.

As for `COc1ccc2c(c1)c(C(=O)O)cc(=O)n2C`, the EC50 is over 200 µM and the IC50 is over 200 µM.

With `N#Cc1nc(COCCOCc2ccccc2)oc1N`, the EC50 is over 110 µM and the IC50 was 107 µM.

For the compound `COC(=O)C1=C(C)N(NC(=O)c2cccc(Cl)c2)C(C)(O)C12CCOC2=O` (configuration not stated), the EC50 is over 631 µM and the IC50 came out at 275 µM.

For `NC1=NC(=O)[C@H](Cc2c[nH]c3ccccc23)N1C(=O)OCc1ccccc1`, the EC50 was over 200 µM and the IC50 came to 120 µM.

Consider `CN1CCc2cc3c4cc2C1Cc1ccc(cc1)Oc1cc(ccc1O)CC1c2c(cc(O)c(c2O4)O3)CCN1C` (configuration not stated), for which the outcome was inactive.

Consider `COC(=O)C1=C(C(=O)OC)C23CC1C1C(C(=O)OC)=C(C(=O)OC)C12C1C=CC3C2C(=O)OC(=O)C21` (configuration not stated), for which the EC50 is over 14.5 µM and the IC50 is over 14.5 µM.

On to `Clc1ccc(-c2nnc(C34CC5CC(CC(C5)C3)C4)o2)cc1`, for which the EC50 is over 200 µM and the IC50 was over 200 µM.

As for `Cc1ccccc1-c1nc(/C=C2\C(=O)C=Cc3ccccc32)c(O)o1`, the EC50 is over 200 µM and the IC50 was over 200 µM.

For `CC1(Br)CN(C(=S)Nc2ccccc2)C1=O` (configuration not stated), the EC50 is over 200 µM and the IC50 is 97.7 µM.

Regarding `CS(=O)(=O)OCC1OC(n2ccc(NC(=O)c3ccccc3)nc2=O)CC1OS(C)(=O)=O` (configuration not stated), the EC50 was over 200 µM and the IC50 was over 200 µM.

On to `COc1cc(C(C#N)NNc2nc(C)cc(=O)[nH]2)cc(OC)c1OC` (configuration not stated), for which the EC50 is over 105 µM and the IC50 was over 105 µM.

Take `C=CC(=O)NCCSSCCNC(=O)C=C`: the EC50 was over 200 µM and the IC50 is 115 µM.

As to `S=c1sc2ccccc2n1CNc1ccccc1Cl`, the EC50 is over 200 µM and the half-maximal inhibitory concentration (IC50) turned out to be 28.2 µM.

As to `Cc1nc2c(ccc3c(C)c(C)c(C)nc32)c(C)c1C`, the EC50 was over 20 µM and the IC50 is 0.977 µM.

With `CCN(CC)CC(=O)NC1c2ccc(Cl)cc2Oc2c(C)cccc21` (configuration not stated), the EC50 is over 72.4 µM and the half-inhibitory concentration (IC50) is 58.9 µM.

As to `CC1OC(OC23C(=O)C[C@](C)(O)CC2(O)C=CC2C3=c3oc(-c4ccc(O)cc4)c4c3=C(C(=O)C(C3CC(OC5CCC(OC6CC(O)C(O)C(C)O6)C(C)O5)C(O)C(C)O3)=C4)C2O)CCC1O` (some centres not stated), the EC50 was over 19.1 µM and the IC50 is over 19.1 µM.

In the case of `O=C(CC1(O)C(=O)Nc2ccccc21)c1ccc(Cl)c(Cl)c1` (configuration not stated), the result was inactive.

Regarding `COc1cc2c(ccc3c4cc(OC)c(OC)cc4c[n+](C)c23)cc1O`, the EC50 is over 324 µM and the IC50 came out at 1.48 µM.

`CC(C)(C)N=C1C(=O)C2(C)CCC1C2(C)C` (configuration not stated): the EC50 is over 20 µM and the IC50 was over 20 µM.

With `CCCCCCCC/C=C\CCCCCCCC(=O)N(C)N(C)C(=O)CCCCCCC/C=C/CCCCCCCC`, the EC50 is over 200 µM and the IC50 was over 200 µM.

With `CCOC(=O)c1nnsc1N/N=C\c1ccc([N+](=O)[O-])cc1`, the EC50 is over 200 µM and the IC50 was over 200 µM.

`O=C1/C(=C/c2ccc(Cl)cc2)Sc2scc(-c3cccc([N+](=O)[O-])c3)[n+]21`: the EC50 is over 200 µM and the IC50 worked out at 1.38 µM.

For the compound `Cc1ccccc1N1C(=O)C(=O)c2cccc(C)c21`, the EC50 was over 200 µM and the IC50 stood at 33.1 µM.

As for `N#C/C(=C/NC(=S)NCc1ccccc1)C(N)=O`, the EC50 is over 200 µM and the IC50 was over 200 µM.

`O=S(=O)(F)c1cc(Cl)ccc1C[P+](c1ccccc1)(c1ccccc1)c1ccccc1`: the EC50 is over 200 µM and the IC50 was found to be 64.6 µM.

For the compound `CCCCCCCCCC(=O)Oc1c2ccoc2cc2oc(=O)ccc12`, the EC50 was over 63.1 µM and the IC50 was over 63.1 µM.

Regarding `CO[C@H]1/C=C/O[C@@]2(C)Oc3c(C)c(O)c4c(O)c(c(/C=N/N5C(C)CN(Cc6ccc(C#N)cc6)CC5C)c(O)c4c3C2=O)NC(=O)/C(C)=C\C=C\[C@H](C)[C@H](O)[C@@H](C)[C@@H](O)[C@@H](C)[C@H](OC(C)=O)[C@@H]1C` (some centres not stated), the EC50 is over 200 µM and the IC50 was found to be 9.12 µM.

`O=c1cc(Cl)c(Cl)nn1-c1ccccc1`: the EC50 was over 56.2 µM and the IC50 was determined as 9.77 µM.

Turning to `CCOC(=O)NC1=C(N2CC2)C(=O)C(NC(=O)OCC)=C(N2CC2)C1=O`, the EC50 is over 24.5 µM and the IC50 was determined as 6.46 µM.

Regarding `Nc1c(N=Nc2ccc(/C=C/c3ccc(N=Nc4cc(S(=O)(=O)O)c5cccc(S(=O)(=O)O)c5c4N)cc3S(=O)(=O)O)c(S(=O)(=O)O)c2)cc(S(=O)(=O)O)c2cccc(S(=O)(=O)O)c12`, the EC50 is 8.71 µM and the IC50 is 77.6 µM.

For `N#CCCN(c1ccc(/C=N/c2nc(-c3ccccc3)cs2)cc1)S(=O)(=O)c1ccccc1`, the EC50 was over 55 µM and the IC50 was over 55 µM.

On to `Cn1c2ccccc2n2c(=O)c(-c3ccc(O)cc3)nnc12`, for which the EC50 was over 200 µM and the IC50 is over 200 µM.

`Oc1cc(Br)cc2cc(Cl)cnc12`: the EC50 was over 200 µM and the IC50 was 1.02 µM.

Consider `CCOCc1cc(=O)c2c(O)cc3c(c2o1)CCC(C)(C)O3`, for which the result was inactive.

On to `CCOC(=O)c1cncc(C#N)c1`, for which the EC50 is over 200 µM and the half-maximal inhibitory concentration (IC50) is 105 µM.

Turning to `N=c1ncn(Cc2ccccc2)c2nc[nH]c12`, the EC50 was over 200 µM and the half-maximal inhibitory concentration (IC50) is over 200 µM.

`CC(=O)OCC1OC(n2c(C)c(C(C)=O)c(-c3cccc4ccccc34)c(C#N)c2=S)C(OC(C)=O)C(OC(C)=O)C1OC(C)=O` (configuration not stated): the EC50 is over 200 µM and the IC50 turned out to be 112 µM.

Take `CC(=O)N(C)n1cn[n+](CC(=O)OC(C)(C)C)c1`: the EC50 was over 200 µM and the IC50 was over 200 µM.

As for `COC(=O)C(C)(C)NC(=O)C(Cc1ccccc1)NC(=O)C(C)(C)NC(=O)OCc1ccccc1` (configuration not stated) (Cbz-[Aib]-[ξF]-[Aib]-OMe), the EC50 is 195 µM and the IC50 came to 741 µM.

Consider `CC1(C)CNC(=O)C2=C(O1)C(=O)OC2`, for which the EC50 was over 1260 µM and the IC50 is over 1260 µM.

For the compound `CC(C)=CCN1CC(C)C(=O)Nc2ccccc21` (configuration not stated), the EC50 is 19.5 µM and the IC50 turned out to be 117 µM.

As to `Cn1c(=O)cc(N2CCCC2)[nH]c1=O`, the EC50 is over 200 µM and the IC50 is over 200 µM.

As a reminder, the EC50 is the midpoint of the concentration-response curve. As a reminder, the IC50 is the midpoint of a concentration-inhibition curve. Read a high IC50 as lower potency.

For the origin of these results see PubChem BioAssay AID179 (DTP/NCI, 2004).
